Measured values published in US10750743B2, “Pyridazinone herbicides” (E.I. DU PONT DE NEMOURS AND COMPANY, priority 2015, dated 2020).

Experiments:
Assay type in all cases: in vivo
[1] = system: barnyardgrass (Echinochloa crus-galli); test: Test A preemergence, directed soil spray, visual injury rating; details: Echinochloa crus-galli, pre-emergence, 240 h, 0 is no effect, 100 is complete control, read-out: Plant response rating (0 to 100 scale), Barnyardgrass; for pest or weed control at 125 g/ha: 125 g ai/ha; for pest or weed control at 500 g/ha: 500 g ai/ha
Procedure, shortened: (§1)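 Compounds in a surfactant-containing solvent were applied as a directed soil spray preemergence, or postemergence to plants 2-10 cm tall at the one- to two-leaf stage, in loam-sand blend. After about 10 d in the greenhouse, injury was rated visually against untreated controls on a 0-100 scale (100 = complete control).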

[2] = system: foxtail, giant (giant foxtail, Setaria faberii); test: as above; details: Setaria faberi, pre-emergence, 240 h, 0 is no effect, 100 is complete control, read-out: Plant response rating (0 to 100 scale), Foxtail, Giant; for pest or weed control at 125 g/ha: 125 g ai/ha; for pest or weed control at 500 g/ha: 500 g ai/ha
Procedure, shortened: as §1

kochia (Kochia scoparia) [3] = test: as above; details: Bassia scoparia, pre-emergence, 240 h, 0 is no effect, 100 is complete control, read-out: Plant response rating (0 to 100 scale), Kochia; for pest or weed control at 125 g/ha: 125 g ai/ha; for pest or weed control at 500 g/ha: 500 g ai/ha
Procedure, shortened: as §1

[4] = system: pigweed (Amaranthus retroflexus); test: as above; details: Amaranthus retroflexus, pre-emergence, 240 h, 0 is no effect, 100 is complete control, read-out: Plant response rating (0 to 100 scale), Pigweed; for pest or weed control at 125 g/ha: 125 g ai/ha; for pest or weed control at 500 g/ha: 500 g ai/ha
Procedure, shortened: as §1

[5] = system: ragweed (common ragweed, Ambrosia elatior); test: as above; details: Ambrosia artemisiifolia, pre-emergence, 240 h, 0 is no effect, 100 is complete control, read-out: Plant response rating (0 to 100 scale), Ragweed; for pest or weed control at 125 g/ha: 125 g ai/ha; for pest or weed control at 500 g/ha: 500 g ai/ha
Procedure, shortened: as §1

[6] = system: ryegrass, It. (Italian ryegrass, Lolium multiflorum); test: as above; details: Lolium multiflorum, pre-emergence, 240 h, 0 is no effect, 100 is complete control, read-out: Plant response rating (0 to 100 scale), Ryegrass, It.; for pest or weed control at 125 g/ha: 125 g ai/ha; for pest or weed control at 500 g/ha: 500 g ai/ha
Procedure, shortened: as §1

[7] = system: barnyardgrass (Echinochloa crus-galli); test: Test B flooded paddy test, visual rating; details: Echinochloa crus-galli, 360 h; Flood, 250 g ai/ha, applied to paddy water, rated after 13 to 15 d; read-out: Barnyardgrass plant response rating (0 to 100 scale, 0 is no effect, 100 is complete control)
Procedure, shortened: (§2)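 Plants grown to the 2-leaf stage. At treatment, pots were flooded to 3 cm above the soil, compound was applied directly to the paddy water, and that depth was held throughout. After 13 to 15 d in the greenhouse, response was rated visually against controls on a 0 (no effect) to 100 (complete control) scale.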

[8] = system: ducksalad (Heteranthera limosa); test: Test B flooded paddy test, visual rating; details: Heteranthera limosa, 360 h; Flood, 250 g ai/ha, applied to paddy water, rated after 13 to 15 d; read-out: Ducksalad plant response rating (0 to 100 scale, 0 is no effect, 100 is complete control)
Procedure, shortened: as §2

rice (Oryza sativa) = test: Test B flooded paddy test, visual rating; details: Oryza sativa, 360 h; Flood, 250 g ai/ha, applied to paddy water, rated after 13 to 15 d; read-out: Rice plant response rating (0 to 100 scale, 0 is no effect, 100 is complete control)
Procedure, shortened: as §2

[9] = system: barnyardgrass (Echinochloa crus-galli); test: Test A postemergence application, visual injury rating; details: Echinochloa crus-galli, post-emergence, 240 h, 0 to 100 scale, 0 no effect, 100 complete control, read-out: Barnyardgrass plant response rating; for pest or weed control at 125 g/ha: 125 g ai/ha; for pest or weed control at 500 g/ha: 500 g ai/ha
Procedure, shortened: as §1

[10] = system: blackgrass (Alopecurus myosuroides); test: as above; details: Alopecurus myosuroides, post-emergence, 240 h, 0 to 100 scale, 0 no effect, 100 complete control, read-out: Blackgrass plant response rating; for pest or weed control at 125 g/ha: 125 g ai/ha; for pest or weed control at 500 g/ha: 500 g ai/ha
Procedure, shortened: as §1

corn (Zea mays) = test: as above; details: Zea mays, post-emergence, 240 h, 0 to 100 scale, 0 no effect, 100 complete control, read-out: Corn plant response rating; for plant injury at 125 g/ha: 125 g ai/ha; for plant injury at 500 g/ha: 500 g ai/ha
Procedure, shortened: as §1

[11] = system: foxtail, giant (giant foxtail, Setaria faberii); test: as above; details: Setaria faberi, post-emergence, 240 h, 0 to 100 scale, 0 no effect, 100 complete control, read-out: Foxtail, Giant plant response rating; for pest or weed control at 125 g/ha: 125 g ai/ha; for pest or weed control at 500 g/ha: 500 g ai/ha
Procedure, shortened: as §1

[12] = system: galium (catchweed bedstraw, Galium aparine); test: as above; details: Galium, post-emergence, 240 h, 0 to 100 scale, 0 no effect, 100 complete control, read-out: Galium plant response rating; for pest or weed control at 125 g/ha: 125 g ai/ha; for pest or weed control at 500 g/ha: 500 g ai/ha
Procedure, shortened: as §1

kochia (Kochia scoparia) [13] = test: as above; details: Bassia scoparia, post-emergence, 240 h, 0 to 100 scale, 0 no effect, 100 complete control, read-out: Kochia plant response rating; for pest or weed control at 125 g/ha: 125 g ai/ha; for pest or weed control at 500 g/ha: 500 g ai/ha
Procedure, shortened: as §1

[14] = system: pigweed (Amaranthus retroflexus); test: as above; details: Amaranthus retroflexus, post-emergence, 240 h, 0 to 100 scale, 0 no effect, 100 complete control, read-out: Pigweed plant response rating; for pest or weed control at 125 g/ha: 125 g ai/ha; for pest or weed control at 500 g/ha: 500 g ai/ha
Procedure, shortened: as §1

[15] = system: ragweed (common ragweed, Ambrosia elatior); test: as above; details: Ambrosia artemisiifolia, post-emergence, 240 h, 0 to 100 scale, 0 no effect, 100 complete control, read-out: Ragweed plant response rating; for pest or weed control at 125 g/ha: 125 g ai/ha; for pest or weed control at 500 g/ha: 500 g ai/ha
Procedure, shortened: as §1

[16] = system: ryegrass, It. (Italian ryegrass, Lolium multiflorum); test: as above; details: Lolium multiflorum, post-emergence, 240 h, 0 to 100 scale, 0 no effect, 100 complete control, read-out: Ryegrass, It. plant response rating; for pest or weed control at 125 g/ha: 125 g ai/ha; for pest or weed control at 500 g/ha: 500 g ai/ha
Procedure, shortened: as §1

[17] = system: wheat (Triticum aestivum); test: as above; details: Triticum aestivum, post-emergence, 240 h, 0 to 100 scale, 0 no effect, 100 complete control, read-out: Wheat plant response rating; for plant injury at 125 g/ha: 125 g ai/ha; for plant injury at 500 g/ha: 500 g ai/ha
Procedure, shortened: as §1

Compound: CC(=O)Oc1c(C)nn(C)c(=O)c1-c1c(C)ccc2cc(C)oc12 [Compound 11, 5-(acetyloxy)-4-(2,6-dimethyl-7-benzofuranyl)-2,6-dimethyl-3(2H)-pyridazinone]
- pest or weed control at 125 g/ha [1]: 50%
- pest or weed control at 500 g/ha [1]: 100%
- pest or weed control at 125 g/ha [2]: 50%
- pest or weed control at 500 g/ha [2]: 100%
- pest or weed control at 125 g/ha (kochia (Kochia scoparia) [3]): 90%
- pest or weed control at 500 g/ha (kochia (Kochia scoparia) [3]): 100%
- pest or weed control at 125 g/ha [4]: 100%
- pest or weed control at 500 g/ha [4]: 100%
- pest or weed control at 125 g/ha [5]: 90%
- pest or weed control at 500 g/ha [5]: 100%
- pest or weed control at 125 g/ha [6]: 100%
- pest or weed control at 500 g/ha [6]: 100%
- pest or weed control at 250 g/ha [7]: 0%
- pest or weed control at 250 g/ha [8]: 0%
- plant injury at 250 g/ha (rice (Oryza sativa)): 0%
- pest or weed control at 125 g/ha [9]: 30%
- pest or weed control at 500 g/ha [9]: 60%
- pest or weed control at 125 g/ha [10]: 60%
- pest or weed control at 500 g/ha [10]: 90%
- plant injury at 125 g/ha (corn (Zea mays)): 0%
- plant injury at 500 g/ha (corn (Zea mays)): 30%
- pest or weed control at 125 g/ha [11]: 60%
- pest or weed control at 500 g/ha [11]: 80%
- pest or weed control at 125 g/ha [12]: 90%
- pest or weed control at 500 g/ha [12]: 90%
- pest or weed control at 125 g/ha (kochia (Kochia scoparia) [13]): 100%
- pest or weed control at 500 g/ha (kochia (Kochia scoparia) [13]): 100%
- pest or weed control at 125 g/ha [14]: 90%
- pest or weed control at 500 g/ha [14]: 100%
- pest or weed control at 125 g/ha [15]: 100%
- pest or weed control at 500 g/ha [15]: 100%
- pest or weed control at 125 g/ha [16]: 100%
- pest or weed control at 500 g/ha [16]: 100%
- plant injury at 125 g/ha [17]: 0%
- plant injury at 500 g/ha [17]: 40%

Compound: Cc1cc2cccc(-c3c(O)c(C)nn(C)c3=O)c2o1 [Compound 12, 5-hydroxy-2,6-dimethyl-4-(2-methyl-7-benzofuranyl)-3(2H)-pyridazinone]
- pest or weed control at 125 g/ha [1]: 0%
- pest or weed control at 500 g/ha [1]: 50%
- pest or weed control at 125 g/ha [2]: 10%
- pest or weed control at 500 g/ha [2]: 60%
- pest or weed control at 125 g/ha (kochia (Kochia scoparia) [3]): 60%
- pest or weed control at 500 g/ha (kochia (Kochia scoparia) [3]): 100%
- pest or weed control at 125 g/ha [4]: 60%
- pest or weed control at 500 g/ha [4]: 100%
- pest or weed control at 125 g/ha [5]: 60%
- pest or weed control at 500 g/ha [5]: 80%
- pest or weed control at 125 g/ha [6]: 100%
- pest or weed control at 500 g/ha [6]: 100%
- pest or weed control at 250 g/ha [7]: 0%
- pest or weed control at 250 g/ha [8]: 0%
- plant injury at 250 g/ha (rice (Oryza sativa)): 0%
- pest or weed control at 125 g/ha [9]: 10%
- pest or weed control at 500 g/ha [9]: 30%
- pest or weed control at 125 g/ha [10]: 40%
- pest or weed control at 500 g/ha [10]: 80%
- plant injury at 125 g/ha (corn (Zea mays)): 0%
- plant injury at 500 g/ha (corn (Zea mays)): 10%
- pest or weed control at 125 g/ha [11]: 20%
- pest or weed control at 500 g/ha [11]: 40%
- pest or weed control at 125 g/ha [12]: 80%
- pest or weed control at 500 g/ha [12]: 90%
- pest or weed control at 125 g/ha (kochia (Kochia scoparia) [13]): 0%
- pest or weed control at 500 g/ha (kochia (Kochia scoparia) [13]): 50%
- pest or weed control at 125 g/ha [14]: 30%
- pest or weed control at 500 g/ha [14]: 50%
- pest or weed control at 125 g/ha [15]: 40%
- pest or weed control at 500 g/ha [15]: 80%
- pest or weed control at 125 g/ha [16]: 90%
- pest or weed control at 500 g/ha [16]: 100%
- plant injury at 125 g/ha [17]: 0%
- plant injury at 500 g/ha [17]: 20%
